Converted amounts (≈) assume the structure as drawn. Where two headings read alike, the source gives them in different places. Blank lines part the entries; values can stand above or below the compound they belong to.
Columns and labels:
[1] = system: M. mycetomatis genome strain MM55; assay: CLSI M38-A2 based in vitro susceptibility screening (XTT or resazurin), growth at fixed concentration; type: cell-based, Madurella mycetomatis; conditions: Madurella mycetomatis
M. mycetomatis MM55 = assay: IC50 determination, 2-fold dilution series 16 to 0.03125 μM; type: cell-based, Madurella mycetomatis; conditions: for IC50 / IC90: Madurella mycetomatis
[2] = system: ten different M. mycetomatis isolates; parameters: method as in PMID 24945848, PMID 22964246, PMID 31904836; conditions: asterisk: determined in previous works ref 19-21; cited from earlier work
[3] = system: ten different M. mycetomatis isolates; assay: MIC / MIC50 determination (XTT) in ten M. mycetomatis isolates; type: cell-based, Madurella mycetomatis; conditions: Madurella mycetomatis
[4] = system: M. mycetomatis isolate MM55; assay: M. mycetomatis grain infection model in G. mellonella larvae, survival; type: in vivo, Galleria mellonella; parameters: In vivo efficacy, Larvae survival %: concentration or dose not given beside the values
[5] = mean, read-out: Percentage survival at 25um, 25 uM mean
[6] = replicate A, read-out: Percentage survival at 25um, 25 um A
[7] = replicate B, read-out: Percentage survival at 25um, 25 uM B
[8] = replicate C, read-out: Percentage survival at 25um, 25 uM C
[9] = 100 uM, mean, read-out: Percentage survival at 100um, 100 uM mean
[10] = 100 uM, replicate (first column), read-out: Percentage survival at 100um, 100 uM A
[11] = 100 uM, replicate (second column), read-out: Percentage survival at 100um, 100 uM A
[12] = 100 uM, replicate (third column), read-out: Percentage survival at 100um, 100 uM A
[13] = MM55, Table 2, M. mycetomatis MM55, read-out: IC50
[14] = MM55, replicate 1, read-out: IC50 1
[15] = MM55, replicate 1, read-out: IC90 1
[16] = MM55, replicate 2, read-out: IC50 2
[17] = MM55, replicate 2, read-out: IC90 2
[18] = MM55, replicate 3, read-out: IC50 3
[19] = MM55, replicate 3, read-out: IC90 3
[20] = median MIC over ten M. mycetomatis isolates, no asterisk, read-out: MIC50
[21] = isolate CBS247.48, read-out: MIC CBS247.48
[22] = isolate MM14, read-out: MIC MM14
[23] = isolate MM45, read-out: MIC MM45
[24] = isolate MM55, read-out: MIC MM55
[25] = isolate ParijsAl1, read-out: MIC ParijsAl1
[26] = isolate Peru72012, read-out: MIC Peru72012
[27] = G. mellonella larvae infected with M. mycetomatis

IC50 (M. mycetomatis MM55; [13]): 0.07 µM
IC50 (M. mycetomatis MM55; [14]): < 0.098 µM
IC90 (M. mycetomatis MM55; [15]): 0.18 µM
IC50 (M. mycetomatis MM55; [16]): < 0.098 µM
IC90 (M. mycetomatis MM55; [17]): < 0.098 µM
IC50 (M. mycetomatis MM55; [18]): 0.38 µM
IC90 (M. mycetomatis MM55; [19]): 1.05 µM
SMILES: CC(=O)N1CCN(c2ccc(OCC3COC(Cn4ccnc4)(c4ccc(Cl)cc4Cl)O3)cc2)CC1 (stereo not shown) [MMV637533, Ketoconazole, reference compound]
activity at 25 µM [1, 5]: -0.0796%
activity at 25 µM [1, 6]: 1.08%
activity at 25 µM [1, 7]: -3.63%
activity at 25 µM [1, 8]: 2.31%
activity at 100 µM [1, 9]: 5.46%
activity at 100 µM [1, 10]: 1.43%
activity at 100 µM [1, 11]: 7.48%
activity at 100 µM [1, 12]: 7.47%
Drug static or cidal (M. mycetomatis MM55): Cidal
MIC50 [2]: 0.13 µM (≈ 0.0691 µg/mL)
MIC range [2]: 0.06 to 1.9 µM

IC50 (M. mycetomatis MM55; [13]): 2.66 µM
IC50 (M. mycetomatis MM55; MM55, mean, read-out: IC50 mean): 2.66 µM
IC90 (M. mycetomatis MM55; MM55, read-out: IC90 mean): 5.17 µM
IC50 (M. mycetomatis MM55; [14]): 2.15 µM
IC90 (M. mycetomatis MM55; [15]): 5 µM
IC50 (M. mycetomatis MM55; [16]): 2.78 µM
IC90 (M. mycetomatis MM55; [17]): 5 µM
IC50 (M. mycetomatis MM55; [18]): 3.06 µM
IC90 (M. mycetomatis MM55; [19]): 5.5 µM
MIC50 [3, 20]: 1 µM (≈ 0.527 µg/mL)
MIC50 ([3]; over the isolates tested, read-out: MIC50 mean): 1 µM (≈ 0.527 µg/mL)
MIC [3, 21]: 16 µM (≈ 8.44 µg/mL)
MIC [3, 22]: 1 µM (≈ 0.527 µg/mL)
MIC [3, 23]: 1 µM (≈ 0.527 µg/mL)
MIC [3, 24]: 4 µM (≈ 2.11 µg/mL)
MIC ([3]; isolate P1, read-out: MIC P1): 2 µM (≈ 1.05 µg/mL)
MIC [3, 25]: 2 µM (≈ 1.05 µg/mL)
MIC [3, 26]: 4 µM (≈ 2.11 µg/mL)
MIC ([3]; isolate So1, read-out: MIC So1): 1 µM (≈ 0.527 µg/mL)
MIC ([3]; isolate i1, read-out: MIC i1): 0.25 µM (≈ 0.132 µg/mL)
MIC ([3]; isolate i11, read-out: MIC i11): 8 µM (≈ 4.22 µg/mL)
SMILES: O[C@@](Cn1cnnn1)(c1ccc(F)cc1F)C(F)(F)c1ccc(-c2ccc(OCC(F)(F)F)cc2)cn1 [MMV1634386, Oteseconazole, reference compound]
activity at 25 µM [1, 5]: -1.26%
activity at 25 µM [1, 6]: -1.75%
activity at 25 µM [1, 7]: -2.55%
activity at 25 µM [1, 8]: 0.501%
activity at 100 µM [1, 9]: 7.07%
activity at 100 µM [1, 10]: -1.99%
activity at 100 µM [1, 11]: 9.06%
activity at 100 µM [1, 12]: 14.2%
Drug static or cidal (M. mycetomatis MM55): Cidal
In vivo efficacy, Enhanced survival compared to control? ([4]; in vivo): no
In vivo efficacy, Larvae survival % ([4]; in vivo): 11.1%

IC50 (M. mycetomatis MM55; [13]): 2.81 µM
IC50 (M. mycetomatis MM55; MM55, mean of replicates, read-out: IC50 mean): 2.81 µM
IC90 (M. mycetomatis MM55; MM55, mean of replicates, read-out: IC90 mean): 4.7 µM
IC50 (M. mycetomatis MM55; MM55, replicate 1, read-out: IC50 1 um): 2.22 µM
IC90 (M. mycetomatis MM55; MM55, replicate 1, read-out: IC90 1 um): 4.36 µM
IC50 (M. mycetomatis MM55; MM55, replicate 2, read-out: IC50 2 um): 2.88 µM
IC90 (M. mycetomatis MM55; MM55, replicate 2, read-out: IC90 2 um): 4.78 µM
IC50 (M. mycetomatis MM55; MM55, replicate 3, read-out: IC50 3 um): 3.33 µM
IC90 (M. mycetomatis MM55; MM55, replicate 3, read-out: IC90 3 um): 4.95 µM
MIC50 [3, 20]: 1 µM (≈ 0.378 µg/mL)
MIC50 ([3]; over the tested M. mycetomatis isolates, read-out: MIC50 mean): 4 µM (≈ 1.51 µg/mL)
MIC [3, 21]: 4 µM (≈ 1.51 µg/mL)
MIC [3, 22]: 4 µM (≈ 1.51 µg/mL)
MIC [3, 23]: 2 µM (≈ 0.755 µg/mL)
MIC [3, 24]: 4 µM (≈ 1.51 µg/mL)
MIC ([3]; isolate P1, read-out: MIC P1): 4 µM (≈ 1.51 µg/mL)
MIC [3, 25]: 4 µM (≈ 1.51 µg/mL)
MIC [3, 26]: 4 µM (≈ 1.51 µg/mL)
MIC ([3]; isolate So1, read-out: MIC So1): 4 µM (≈ 1.51 µg/mL)
MIC ([3]; isolate i1, read-out: MIC i1): 1 µM (≈ 0.378 µg/mL)
MIC ([3]; isolate i11, read-out: MIC i11): 4 µM (≈ 1.51 µg/mL)
SMILES: O=C(/C(=C/c1ccc(Cl)cc1Cl)n1ccnc1)c1ccc(Cl)cc1 [MMV1634491]
activity at 25 µM ([1]; mean of three, M. mycetomatis MM55, read-out: Percentage survival at 25um, 25 uM mean): 0.641%
activity at 25 µM ([1]; replicate A, M. mycetomatis MM55, read-out: Percentage survival at 25um, 25 um A): -1.32%
activity at 25 µM ([1]; replicate B, M. mycetomatis MM55, read-out: Percentage survival at 25um, 25 uM B): 0.287%
activity at 25 µM ([1]; replicate C, M. mycetomatis MM55, read-out: Percentage survival at 25um, 25 uM C): 2.96%
activity at 100 µM ([1]; 100 uM, mean of three, M. mycetomatis MM55, read-out: Percentage survival at 100um, 100 uM mean): 7.66%
activity at 100 µM ([1]; 100 uM, replicate 1, M. mycetomatis MM55, read-out: Percentage survival at 100um, 100 uM A (first replicate column)): -1.73%
Percent fungal survival at 100 µM ([1]; 100 uM, replicate 2, M. mycetomatis MM55, read-out: Percentage survival at 100um, 100 uM A (second replicate column)): 4.59%
activity at 100 µM ([1]; 100 uM, replicate 3, M. mycetomatis MM55, read-out: Percentage survival at 100um, 100 uM A (third replicate column)): 20.1%
Drug static or cidal (M. mycetomatis MM55; M. mycetomatis): Static
In vivo efficacy, Enhanced survival compared to control? [4, 27]: no
In vivo efficacy, Larvae survival % [4, 27]: 8.9%

Source: PMC8815882, “Screening the pandemic response box identified benzimidazole carbamates, Olorofim and ravuconazole as promising drug candidates for the treatment of eumycetoma” (PLoS Neglected Tropical Diseases, 2022)
